Data: patent publication US4694011A, “Novel 7-hydroxy-indoles” (Roussel Uclaf, priority 1985, dated 1987)

Experiments:
[1] = test system: mice; assay: Acute toxicity; type: in vivo; conditions: oral administration
Description: The lethal doses LD50 of the different compounds tested were evaluated after oral administration to mice and LD0 is the maximum dose not causing any mortality in 8 days.

[2] = test system: pressure responses to the electrical stimulation; assay: Presynaptic activity at the vascular level; type: in vivo, rat (Sprague-Dawley); conditions: demedullated Sprague-Dawley rats
Description: F. Presynaptic activity at the vascular level
Rats of Sprague-Dawley strain weighing 320-350 g were anesthetized with pentobarbital (50 mg/kg by intraperitoneal injection) and after insertion of a carotidien catheter to measure the arterial pressure and a jugular catheter for the injection of the test compounds, the animals were demedullated with a stainless steel rod introduced by the right orbitary orifice. This rod was insulated along its length with the exception of the last five centimeters. As soon as the medulla was destroyed, the animals were placed under assisted respiration. After a period of rest of about 20 minutes, the animals were submitted to electrical stimulations applied between the demedullation rod and a neutral electrode placed under the skin in the thigh region with impulses of 2 msec., frequency of 10 Hz and amplitude of about 20 V for 30 sec. for 5 minutes each. […] The addition of appropriate blockers and the combination of this technique with the modification of dose-response curves to vasoconstricting agents such as noradrenaline enabled the pharmacological profile of the test compound to be determined.

[3] = test system: average arterial pressure; assay: Test for direct vasodilatory activity of vascular relaxing postsynaptic activity (demedullated rats, angiotensine II); type: in vivo, rat (Sprague-Dawley)
Description: D. Test for Direct Vasodilatary Activity of Vascular Relaxing Postsynaptic-activity
Rats of the Sprague-Dawley strain weighing 320-350 g were anesthetized with pentobarbital (50 mg/kg by intraperitoneal injection) and after the positioning of a carotidien catheter to measure the arterial pressure and a jugular catheter for the injection of the test compounds and possible antagonists, the animals were demedullated with a steel rod. This rod was introduced by the right orbital orifice and descended the length of the spinal cord. The animals were then immediately placed under assisted respiration and a few minutes after the arterial pressure was stabilized, the animals received an intravenous perfusion of angiotensine II of […] to increase their average pressure by about 100 mm of mercury. After a plateau was reached, the test substance was injected intravenously every 2 minutes and in cumulated doses. The percentage drop in the average arterial pressure obtained enabled a dose-response curve to be traced reflecting the vasodilatary activity of the compound studied. The preliminary treatment of the animals with different antagonists enabled the mechanism of action of the compound to be determined. The products were tested between 0.001 and 1 mg/kg and Domperidone and propanolol were used as antagonists.

[4] = test system: dopaminergic stimulating activity at the central level; assay: Rotation behavior after unilateral lesion of the nigra-striated bundle by 6-hydroxydopamine; type: in vivo, rat; conditions: male rats, intraperitoneal, 5 mg/kg
Description: A. Rotation behavior after unilateral lesion of the nigra-striated bundle by 6-hydroxydopamine
Male rats weighing about 220 g were injured in the nigra-striated dopaminergic bundle by Ungerstedt's method [Acta physiol. Scand. 1971, Vol. 82 suppl. p. 367-69 93] modified by unilateral injection of 9.2 μg of 6-hydroxydopamine hydrochloride in solution in 4 μl of physiological solution containing 0.5 mg/ml of ascorbic acid. The test products were administered intraperitoneally and the animals treated, on average 6, were placed individually in a rotometer which enabled the counting of the number of rotations carried out by each animal in the opposite direction to the injured side.

[5] = test system: dopaminergic agonist action at the central level; assay: Stereotype behavior; type: in vivo, rat; conditions: male rats, intraperitoneal, 50 mg/kg
Description: The tests were carried out on groups of 5 male rats weighing 150 to 180 g and each animal was placed individually in a barred cage (29×25×17 cm) containing a few wood shavings. The test product was administered intraperitoneally and the behavior of the animals was noted every half-hour for 5 hours with the rating of Halliwell et al [Brit. J. Pharmacol. 1964, Vol. 23, 330-350]. The animal was asleep (0), it was awake but immobile (1), it turned in the cage (2), it sniffed the cover (3), it licks the walls (4), it touched the wood shavings or the bars of the cage with its teeth (5), it bit the shavings or the bars of the cage (6).

[6] = test system: force of cardiac contraction; assay: Positive inotropic activity; type: in vivo, rat (Sprague-Dawley); conditions: 10 to 100 mg/kg
Description: E. Positive inotropic activity
Rats of Sprague-Dawley strain weighing 300 to 350 g were anesthetized with pentobarbital (50 mg/kg by intraperitoneal injection) and a catheter was placed in the left ventricle to measure the cardiac intraventricular pressure and the dP/dt VG (or rate of variation of the intraventricular pressure). A second arterial catheter placed in the femoral artery enabled the systemic arterial pressure and the cardiac frequency to be registered. The test products and the possible antagonists were injected by a catheter placed in a jugular vein. This model enabled the effect of various substances on the force of cardiac contraction to be evaluated in vivo as a function of the dose and the time.

[7] = test system: arterial pressure; assay: Hypotensive activity (arterial pressure, anesthetized rats); type: in vivo, rat (WISTAR); conditions: male WISTAR rats anesthetized with nembutal, intravenous, 1 mg/kg
Description: The hypotensive activity was studied on male rats of the WISTAR strain weighing about 300 g and anesthetized with nembutal (50 mg/kg by intraperitoneal route). The product tested was administered intravenously into the jugular vein and the carotidien arterial pressure was measured before and after administration of the product tested.

[8] = anesthetized Sprague-Dawley rats, jugular vein

SMILES	LD0 (maximum dose not causing any mortality in 8 days) [1] [mg/kg]	site of action linked to the reduction of the responses [2]	pressure responses to the electrical stimulation ([2]; intravenous)	blockade by sulpiride of the reduction of the responses ([2]; with sulpiride)	origin of the vasodilator effect (mechanism) ([3]; Domperidone and propanolol used as antagonists)	minimal effective dose ([3]; Rattus norvegicus, demedullated Sprague-Dawley rats, angiotensine II perfusion, intravenous cumulated doses, tested between 0.001 and 1 mg/kg, read-out: dose from which a dose dependent vasodilator effect occurs) [mg/kg]	central dopaminergic stimulating activity (conclusion from rotation test) [4]	rotations in the opposite direction to the injured side ([4]; at least ninety minutes)	central dopaminergic agonist action (conclusion from stereotype test) [5]	stereotype movements ([5]; noted every half-hour for 5 hours)	positive inotropic effect (conclusion) [6]	blockade by propanolol of the increase of dP/dt and maximal ventricular pressure ([6]; with propanolol)	dP/dt (rate of variation of the intraventricular pressure) [6, 8]	maximal ventricular pressure [6, 8]	effect on carotidien arterial pressure [7]
Br.CCCN1CCCC(c2ccc(O)c3c2CC(=O)N3)C1 (stereo not shown) [Example 4, 1,3-dihydro-7-hydroxy-4-(1-propyl-3-piperidinyl)-2H-indol-2-one hydrobromide]	400														
Br.O=C1Cc2c(C3CCCNC3)ccc(O)c2N1 (stereo not shown) [Example 3, 1,3-dihydro-7-hydroxy-4-(3-piperidinyl)-2H-indol-2-one hydrobromide]	400	essentially post-synaptic activity	reduction of the responses	not blocked by sulpiride	of dopaminergic and α-adrenergic origin	≥ 0.001	substantially deprived of dopaminergic stimulating activity at the central level	practically no rotations	substantially deprived of dopaminergic agonist action at the central level	practically no stereotype movements	possessed positive inotropic properties	not otherwise blocked by propanolol	increase of the dP/dt	increase of the dP/dt and of the maximal ventricular pressure	slight effect on the arterial pressure
